Results published in publication PMC11818041, “Pilot-Scale Production of Sericin-Derived Oligopeptides (SDOs) from Yellow Silk Cocoons: Peptide Characterization and Specifications” (Foods, 2025).
Read-outs that look alike come from different tables or passages of the source. Marks after values point to notes of the source that are not given here. Residues, ends and D or L forms follow the SMILES beside them.

What was measured:
ACE = ACE (Homo sapiens, UniProt P12821); test: ACE inhibitory activity assay (FAPGG substrate); format: biochemical; conditions: for inhibition at 200 µM: read-out: Inhibition (%) ACE
Chain of ACE (P12821 30-1306, species assumed): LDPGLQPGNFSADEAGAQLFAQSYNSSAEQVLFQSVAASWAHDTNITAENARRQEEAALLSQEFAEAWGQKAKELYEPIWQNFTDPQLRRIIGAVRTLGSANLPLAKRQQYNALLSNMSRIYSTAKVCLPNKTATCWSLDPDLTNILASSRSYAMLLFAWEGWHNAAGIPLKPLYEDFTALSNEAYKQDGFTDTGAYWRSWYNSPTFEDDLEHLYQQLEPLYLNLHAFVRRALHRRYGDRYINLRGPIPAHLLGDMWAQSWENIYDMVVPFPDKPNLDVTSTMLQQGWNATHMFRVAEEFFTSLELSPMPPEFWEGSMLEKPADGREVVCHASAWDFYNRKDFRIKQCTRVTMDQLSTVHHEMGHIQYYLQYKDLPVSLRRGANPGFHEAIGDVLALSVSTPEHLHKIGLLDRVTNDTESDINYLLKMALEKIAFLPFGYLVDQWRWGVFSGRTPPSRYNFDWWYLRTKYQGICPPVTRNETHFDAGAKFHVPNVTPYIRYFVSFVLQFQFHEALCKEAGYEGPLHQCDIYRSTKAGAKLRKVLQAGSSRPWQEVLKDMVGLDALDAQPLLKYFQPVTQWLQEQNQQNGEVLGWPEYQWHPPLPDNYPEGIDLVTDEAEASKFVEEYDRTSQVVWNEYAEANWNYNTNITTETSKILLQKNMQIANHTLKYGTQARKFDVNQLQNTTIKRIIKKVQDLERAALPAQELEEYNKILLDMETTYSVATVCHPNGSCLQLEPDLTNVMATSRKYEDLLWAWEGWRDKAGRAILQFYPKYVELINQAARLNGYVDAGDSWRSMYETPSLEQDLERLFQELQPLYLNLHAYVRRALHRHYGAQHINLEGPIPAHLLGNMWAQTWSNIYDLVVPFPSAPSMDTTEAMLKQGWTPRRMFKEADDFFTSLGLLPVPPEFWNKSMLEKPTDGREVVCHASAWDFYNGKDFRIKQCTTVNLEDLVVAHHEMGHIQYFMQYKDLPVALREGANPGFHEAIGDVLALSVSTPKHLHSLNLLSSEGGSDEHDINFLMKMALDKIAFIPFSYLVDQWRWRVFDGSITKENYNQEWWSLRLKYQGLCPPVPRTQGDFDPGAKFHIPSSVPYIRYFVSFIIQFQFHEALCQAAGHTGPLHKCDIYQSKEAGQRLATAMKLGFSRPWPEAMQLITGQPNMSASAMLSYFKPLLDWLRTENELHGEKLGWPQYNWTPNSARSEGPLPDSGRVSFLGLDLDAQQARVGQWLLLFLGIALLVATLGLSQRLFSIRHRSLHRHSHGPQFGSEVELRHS

DPP-IV = DPP-IV (Homo sapiens, UniProt P27487); test: DPP-IV inhibitory activity assay (GPN substrate); format: biochemical; conditions: for inhibition at 2500 µM / Inhibition (%) DPP-IV: synthetic peptide at 2.5 mM (final reaction concentration)
Chain of DPP-IV (P27487 whole entry, species assumed): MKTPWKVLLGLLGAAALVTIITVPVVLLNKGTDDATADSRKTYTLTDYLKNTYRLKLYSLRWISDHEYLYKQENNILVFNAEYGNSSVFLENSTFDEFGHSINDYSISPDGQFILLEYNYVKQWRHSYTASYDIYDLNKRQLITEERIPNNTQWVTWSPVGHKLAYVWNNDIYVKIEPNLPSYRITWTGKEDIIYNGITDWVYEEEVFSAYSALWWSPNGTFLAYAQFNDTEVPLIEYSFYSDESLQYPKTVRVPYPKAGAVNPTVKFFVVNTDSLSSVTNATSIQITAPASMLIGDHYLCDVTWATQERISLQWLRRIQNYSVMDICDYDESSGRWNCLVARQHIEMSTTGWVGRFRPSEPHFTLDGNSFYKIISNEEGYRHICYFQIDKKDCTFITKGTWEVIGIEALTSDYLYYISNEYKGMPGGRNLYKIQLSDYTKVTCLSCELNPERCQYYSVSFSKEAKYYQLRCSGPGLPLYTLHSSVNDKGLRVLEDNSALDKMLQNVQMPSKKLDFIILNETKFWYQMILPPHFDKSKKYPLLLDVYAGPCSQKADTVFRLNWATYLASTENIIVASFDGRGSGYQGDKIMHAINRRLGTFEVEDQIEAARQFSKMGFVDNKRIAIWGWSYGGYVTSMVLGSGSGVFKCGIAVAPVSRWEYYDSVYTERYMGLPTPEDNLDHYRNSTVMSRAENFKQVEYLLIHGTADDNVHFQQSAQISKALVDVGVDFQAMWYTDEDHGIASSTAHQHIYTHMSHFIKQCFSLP

[1] = Metal chelating activity (FeCl2/ferrozine); conditions: reference against which IC50 values were compared
Procedure: Following a 3 min dark incubation, 50 μL of 5 mM ferrozine was introduced and incubated for 20 min at ambient temperature in the absence of light. Absorbance was quantified at 562 nm. […] The chelating activity was determined using the following formula:Metal chelating activity (%) = [(Acontrol − Asample)/Acontrol] × 100

[2] = design: method as in BIOPEP-UWM database; conditions: fragments in brackets, activities listed jointly; ref BIOPEP-UWM database; cited from earlier work
[3] = ABTS radical scavenging activity; conditions: standard against which IC50 values were compared
Procedure: The antioxidant activity was evaluated using a modified ABTS assay according to Laosam et al.. Then, ABTS stock solution was prepared by combining 7.0 mM ABTS with 2.6 mM potassium persulfate in 50 mM phosphate buffer (pH 7.4) and incubated in darkness for 12–16 h before use. Subsequently, the analysis was initiated by combining 20 μL of SDOs samples with 1980 μL of ABTS working solution (stock solution diluted with phosphate buffer to achieve an absorbance of 0.740 ± 0.020 at 734 nm). After 5 min of incubation in the dark, the absorbance was measured at 734 nm. […] With the formula below, the radical scavenging activity was calculated:Scavenging activity (%) = [(Acontrol − Asample)/Acontrol] × 100 where Acontrol and Asample represent the absorbance of control and sample, respectively.

[4] = synthetic peptide at 0.2 mM (final reaction concentration)
[5] = synthetic peptide, read-out: Inhibition (IC50 Value) DPP-IV
[6] = synthetic peptide, read-out: Inhibition (IC50 Value) ACE

Compound | inhibition at 200 µM (ACE; [4]) [%] | inhibition at 2500 µM (DPP-IV) [%] | IC50 (DPP-IV; [5]) [µM] | Inhibition (%) DPP-IV (DPP-IV) | also measured
CC(C)C[C@H](NC(=O)[C@H](Cc1c[nH]c2ccccc12)NC(=O)[C@@H](NC(=O)[C@H](C)NC(=O)[C@@H](N)CC(C)C)[C@@H](C)O)C(=O)N1CCC[C@H]1C(=O)N[C@@H](CCCNC(=N)N)C(=O)O [LATWLPR] (H-LATWLPR-OH) | 36.1 ± 0.54 | 47.4 ± 1.73 | 2030 ± 150 | – | –
O=C(O)CN(CCN(CC(=O)O)CC(=O)O)CC(=O)O [EDTA] | – | – | – | – | Metal chelating activity, value of the reference [1]: 0.31 mg/mL
LFD | – | – | – | 33.85 ± 1.27 ^ijk % | –
PYH | – | – | – | 29.97 ± 0.60 ^kl % | Inhibition (%) ACE (ACE; [4]): 15.69 ± 1.82 ^klm %
MED | – | – | – | 38.87 ± 0.64 ^fghi % | –
CC(C)C[C@H](N)C(=O)N[C@@H](Cc1ccccc1)C(=O)N[C@@H](CC(=O)O)C(=O)N[C@@H](CCC(N)=O)C(=O)N1CCC[C@H]1C(=O)N[C@@H](Cc1ccc(O)cc1)C(=O)N[C@@H](Cc1ccccc1)C(=O)O [LFDQPYF] (H-LFDQPYF-OH) | 42.4 ± 2.64 | 45 ± 2.04 | 3170 ± 170 | – | –
N=C(N)NCCC[C@H](NC(=O)[C@@H]1CCCN1C(=O)[C@H](Cc1ccccc1)NC(=O)[C@H](CCC(=O)O)NC(=O)[C@H](CS)NC(=O)[C@@H](N)Cc1c[nH]c2ccccc12)C(=O)O [WCEFPR] (H-WCEFPR-OH) | 75.4 ± 1.53 | 41.1 ± 0.43 | 2820 ± 220 | – | IC50 (ACE; [6]): 21.2 ± 1.86 µM
N[C@@H](CS)C(=O)N[C@@H](CCC(=O)O)C(=O)N[C@@H](Cc1ccccc1)C(=O)O [CEF] (H-Cys-Glu-Phe-OH) | – | 23.49 ± 0.14 | – | – | inhibition at 200 µM (ACE): 91.67 ± 0.73%; IC50 (ACE; [6]): 14.86 ± 0.1 µM
EFF | – | – | – | 30.57 ± 1.97 ^kl % | –
QTA | – | – | – | 10.54 ± 1.90 ^o % | Inhibition (%) ACE (ACE; [4]): 16.48 ± 1.26 ^kl %
NPR | – | – | – | 36.70 ± 0.09 ^ghij % | Inhibition (%) ACE (ACE; [4]): 17.84 ± 0.68 ^k %
YDY | – | – | – | – | Previous Reported Bioactivity of the Fragments (BIOPEP-UWM Database) [2]: (YDY) Antioxidative
EFYE | – | – | – | 36.03 ± 0.51 ^ghij % | –
CC(C)C[C@H](NC(=O)[C@H](CC(C)C)NC(=O)[C@H](CC(C)C)NC(=O)[C@H](Cc1ccccc1)NC(=O)[C@@H](N)CCC(=O)O)C(=O)N[C@@H](Cc1c[nH]cn1)C(=O)N[C@@H](C)C(=O)O [EFLLLHA] (H-EFLLLHA-OH) | 58.3 ± 0.92 | 40.5 ± 1.74 | 3570 ± 130 | – | IC50 (ACE; [6]): 138.3 ± 1.04 µM
QTALVELLQ [SDO peptide identified in fraction F1] | – | – | – | 22.20 ± 0.26 ^n % | –
LGN | – | – | – | 35.84 ± 0.09 ^hij % | Inhibition (%) ACE (ACE; [4]): 44.11 ± 0.96 ^g %
CC(C)C[C@H](NC(=O)[C@H](CC(=O)O)NC(=O)[C@@H]1CCCN1C(=O)[C@@H](N)Cc1ccc(O)cc1)C(=O)O [YPDL] (H-YPDL-OH) | 11.8 ± 2.26 | 48.3 ± 0.59 | – | – | IC50 (ACE): > 200 µM; IC50 (DPP-IV): 2390 ± 60 µM
Cc1c(C)c2c(c(C)c1O)CCC(C)(C(=O)O)O2 (stereo not shown) [Trolox] | – | – | – | – | ABTS radical scavenging, value of the standard [3]: 0.27 mg/mL
CC(C)C[C@H](NC(=O)[C@H](CC(=O)O)NC(=O)[C@H](Cc1ccccc1)NC(=O)[C@H](Cc1ccccc1)NC(=O)[C@@H](N)CCC(=O)O)C(=O)N1CCC[C@H]1C(=O)N[C@@H](Cc1ccc(O)cc1)C(=O)N[C@@H](Cc1c[nH]cn1)C(=O)O (H-EFFDLPYH-OH) | 63.4 ± 1.6 | 45.7 ± 1.86 | 2760 ± 30 | – | IC50 (ACE; [6]): 158 ± 2.2 µM
MEH | – | – | – | 37.20 ± 3.18 ^ghij % | Inhibition (%) ACE (ACE; [4]): 11.20 ± 0.04 ^n %
CC(C)C[C@H](NC(=O)[C@H](CO)NC(=O)[C@H](C)NC(=O)[C@H](CCC(=O)O)NC(=O)[C@H](C)NC(=O)[C@@H](N)C(C)C)C(=O)N1CCC[C@H]1C(=O)N[C@@H](CCCNC(=N)N)C(=O)O (H-VAEASLPR-OH) | 3.89 ± 0.61 | 55.2 ± 0.69 | 1920 ± 60 | – | –
CC(C)C[C@H](NC(=O)[C@H](CCC(N)=O)NC(=O)[C@H](CCC(N)=O)NC(=O)[C@H](CO)NC(=O)[C@H](CC(N)=O)NC(=O)[C@@H](N)CCC(=O)O)C(=O)N[C@@H](Cc1c[nH]cn1)C(=O)O [ENSQQLH] (H-ENSQQLH-OH) | – | 40.4 ± 4.54 | 2540 ± 100 | – | –

Second part, led by results:

inhibition at 200 µM (ACE; [4]) [%] | inhibition at 2500 µM (DPP-IV) [%] | IC50 (DPP-IV; [5]) [µM] | Inhibition (%) DPP-IV (DPP-IV) | Compound | also measured
– | – | – | 37.22 ± 0.43 ^ghij % | DDK | –
61.3 ± 0.88 | 33.1 ± 2.67 | – | – | CSCC[C@H](NC(=O)[C@@H](N)Cc1c[nH]c2ccccc12)C(=O)N[C@@H](Cc1c[nH]cn1)C(=O)N[C@H](C(=O)N[C@@H](CCCNC(=N)N)C(=O)O)C(C)C [WMHVR] (H-WMHVR-OH) | IC50 (ACE; [6]): 118 ± 1.82 µM
89.2 ± 1.07 | 37 ± 0.95 | – | – | CC(C)C[C@H](NC(=O)[C@@H](N)Cc1ccc(O)cc1)C(=O)N[C@@H](Cc1ccc(O)cc1)C(=O)N[C@@H](CC(N)=O)C(=O)N[C@@H](C)C(=O)NCC(=O)N[C@@H](C)C(=O)N[C@@H](CCCNC(=N)N)C(=O)O (H-YLYNAGAR-OH) | IC50 (ACE; [6]): 77.28 ± 0.05 µM
– | – | – | 37.45 ± 1.55 ^ghij % | WGWNPR | Inhibition (%) ACE (ACE; [4]): 23.69 ± 2.90 ^j %
– | – | – | 21.93 ± 0.35 ^n % | AEF | Inhibition (%) ACE (ACE; [4]): 6.04 ± 1.41 ^o %
– | – | – | 38.00 ± 1.38 ^fghi % | EFL | –
34 ± 2.33 | 56.2 ± 1.55 | 1430 ± 30 | – | CC(C)C[C@H](NC(=O)[C@H](CCC(=O)O)NC(=O)[C@H](Cc1ccc(O)cc1)NC(=O)[C@H](Cc1ccccc1)NC(=O)[C@@H](N)CCC(=O)O)C(=O)N[C@@H](C)C(=O)N[C@@H](CCCNC(=N)N)C(=O)O [EFYELAR] (H-EFYELAR-OH) | –
86 ± 1.66 | 56.9 ± 1.47 | 1350 ± 40 | – | CC(C)C[C@H](NC(=O)[C@H](CC(=O)O)NC(=O)[C@@H]1CCCN1C(=O)[C@@H](N)Cc1ccc(O)cc1)C(=O)N1CCC[C@H]1C(=O)N[C@@H](Cc1ccc(O)cc1)C(=O)N[C@@H](Cc1c[nH]cn1)C(=O)O [YPDLPYH] (H-YPDLPYH-OH) | IC50 (ACE; [6]): 18.1 ± 0.05 µM
58.6 ± 2.61 | 42.88 ± 0.09 | 2940 ± 90 | – | CC(C)C[C@H](NC(=O)[C@H](CC(N)=O)NC(=O)CNC(=O)[C@@H](N)CC(C)C)C(=O)N[C@@H](Cc1ccc(O)cc1)C(=O)N[C@@H](CC(=O)O)C(=O)N[C@@H](Cc1ccc(O)cc1)C(=O)O [LGNLYDY] (H-LGNLYDY-OH) | IC50 (ACE; [6]): 162.1 ± 1.19 µM
69.53 ± 0.03 | 55.54 ± 0.34 | 2380 ± 30 | – | CC(C)C[C@H](NC(=O)[C@H](CC(=O)O)NC(=O)[C@H](Cc1ccccc1)NC(=O)[C@@H](N)CC(N)=O)C(=O)N1CCC[C@H]1C(=O)N[C@@H](Cc1ccc(O)cc1)C(=O)N[C@@H](Cc1c[nH]cn1)C(=O)O [NFDLPYH] (H-NFDLPYH-OH) | IC50 (ACE; [6]): 77.2 ± 2.7 µM
– | – | – | 37.28 ± 0.69 ^ghij % | LFDLMEH [SDO peptide identified in fraction F8] | –
